The record followed here is the NIST ThermoML archive (doi:10.1016/j.jct.2016.06.011).

The data set can be described thus: wn = mass fraction of the nth substance listed. The conditions noted are these: 101.3 kPa, Liquid, Pycnometric method.

The term mass density denotes mass per unit of volume.

± gives the expanded uncertainty stated by the source.

`O=C1OC(=O)c2ccccc21` [isobenzofuran-1,3-dione] + C1COCCO1: the mass density was 1034 ± 14 kg/m3 (283.15 K, w1 = 0.08506); 1051 ± 14 kg/m3 (293.15 K, w1 = 0.1354); 1061 ± 14 kg/m3 (303.15 K, w1 = 0.21).
In the case of `O=Cc1ccc2ccccc2c1` [β-naphthaldehyde] + C1COCCO1, the mass density is, setting by setting: (283.15 K, w1 = 0.3211) 1049 ± 14 kg/m3; (293.15 K, w1 = 0.4232) 1056 ± 14 kg/m3; (303.15 K, w1 = 0.5289) 1063 ± 14 kg/m3.
